{"source": "patent US6495118B1", "about": "“Lipophilic metal complexes for necrosis and infarction imaging” (Schering Aktiengesellschaft, priority 1997, dated 2002)", "key": {"[1]": {"system": "rats with induced renal infarctions (necrotic area of the kidney)", "assay": "MRI experiments on animals with induced renal infarctions", "format": "in vivo", "settings": "rat", "procedure": "Plasma protein bond: 10% (Europ. Workshop on Magn. Reson. in Medicine, Santiago de Compostela, Spain, Sep. 28-30, 1994).\nThe induction of the renal infarctions was carried out on anesthetized (Rompun®/Ketavet®, i.p.) rats (Han. Wistar, Schering SPF, about 200 g of body weight) by occlusion of a (caudal) branch of the left renal artery. The contrast medium was administered (dose: 300 or 500 μmol of Gd/kg of body weight) about 24 hours after the induction of infarction. The animals were studied before and up to 24 hours after contrast medium administration by MR-tomography (SISCO SIS 85, 2 tesla; SE sequence, TR: 400 ms, TE: 15 ms, nt=4, ni=128, FOV: 12-7 cm, SD≈3 mm, 1 layer each axial or coronary).\nAfter the MRI experiments were completed, the anesthetized animals were sacrificed by exsanguination (via the V. cava), and both kidneys were prepared. To verify the infarction (size and position), the left (infarcted) kidney was removed and sliced into disks, and then NBT (“vital”) coloring was carried out."}, "plasma protein": {"system": "plasma protein", "settings": "cited from earlier work"}}, "data": [{"smiles": "CCOc1ccc(CC(CN(CCN(CC(=O)[O-])CC(=O)[O-])CC(=O)[O-])N(CC(=O)[O-])CC(=O)[O-])cc1.[Gd+3].[Na+].[Na+]", "note": "(centres unmarked) [Eovist]", "values": [{"measurement": "MRI appearance of nonperfused portion of the kidneys", "setting": "[1]; 300 or 500 μmol of Gd/kg i.v., immediately after substance administration", "result": "hypointense area"}, {"measurement": "MRI signal (enhancement) in the necrotic area of the kidneys", "setting": "[1]; 300 or 500 μmol of Gd/kg i.v., late phase (about 4-6 hours p.i.), all animals studied", "result": "considerable signal increase (enhancement)"}, {"measurement": "MRI signal intensity in the non-perfused area", "setting": "[1]; 300 or 500 μmol of Gd/kg i.v., starting at about 15-30 minutes p.i.", "result": "increased somewhat"}, {"measurement": "Correlation of MRI delineation of the necrotic area with histological vital (NBT) coloring", "setting": "[1]; infarcted left kidney", "result": "correlated very well"}, {"measurement": "Plasma protein bond", "setting": "plasma protein", "result": 10, "unit": "%"}]}]}
